15 compounds from patent US11584763B2, “Chromenopyridine derivatives as phosphatidylinositol phosphate kinase inhibitors” (HIBERCELL, INC., priority 2017, dated 2023) can be followed below.

For one assay, the target named is T1, PIP4K2B (Homo sapiens, UniProt P78356).
T1 construct: made in house; host or cells: E. coli
T1 sequence (P78356 1-416): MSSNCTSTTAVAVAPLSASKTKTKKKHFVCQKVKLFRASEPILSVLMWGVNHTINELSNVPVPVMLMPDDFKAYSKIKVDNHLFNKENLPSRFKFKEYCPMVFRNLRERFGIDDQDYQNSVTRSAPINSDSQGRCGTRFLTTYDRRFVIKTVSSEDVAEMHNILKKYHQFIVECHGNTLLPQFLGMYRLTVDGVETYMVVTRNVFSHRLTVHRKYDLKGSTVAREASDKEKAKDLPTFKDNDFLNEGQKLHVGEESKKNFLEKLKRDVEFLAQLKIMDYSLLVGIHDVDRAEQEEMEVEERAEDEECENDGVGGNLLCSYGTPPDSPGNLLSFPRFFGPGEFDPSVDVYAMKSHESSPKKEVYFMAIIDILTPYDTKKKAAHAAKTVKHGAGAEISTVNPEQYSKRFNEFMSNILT
Kind of assay: Trans-FI P kinase assay PIP4K2B (PIP4KtypeIIB inhibition assay). The class given is biochemical. The note with it: compounds listed under IC50 bin headings; 100 uM GTP; read-out: Trans-FI P kinase assays: PIP4K2B IC50. An excerpt: GST tagged PIP4KtypeIIA and B enzymes were overexpressed in E. Coli and purified to >80% homogeneity. Phosphatidyl inositol-5-phosphate (PI5P, Cat. #850152, Avanti Polar Lipids Inc.) was used as the lipid substrate and phosphatidyl ethanolamine (DOPE 18:1, Cat. #850725, Avanti Polar Lipids Inc.) was used as the carrier lipid for assays. Ultrapure ATP and GTP was purchased from Bellbrooke Labs. ADP Glo reagents were obtained from Promega. Transcreener FI reagent was obtained from Bellbrooke labs.
GST-tagged PIP4KtypeIIB (3.4 uL, 2.77 mg/mL) was diluted to 5 mL using HNE buffer to yield 5× enzyme stock (25 nM)
Lipid Preparation: In a 10 mL pyrex glass vial, 1 ug of PI5P and 1 ug of DOPE were suspended in 2.5 mL of HEPES buffer mix and 2.5 mL of H:E buffer. The contents were mixed and sonicated for 3 min to yield a translucent lipid stock.
Compound Preparation: Compounds were stored as 5 mM stocks in neat DMSO as room temperature in glass vials. 5 mM stocks were diluted to 2 mM and then serially diluted (3×) in neat DMSO in 96 well polypropylene plates. From the serially diluted stocks, 3 uL was delivered into 250 uL of 25% DMSO (in water) to generate 5× compound stocks. Typically, the highest compound conc. was 24 uM.
The assay volume was kept at 25 uL. To each well of the reaction plate, 10 uL of lipid stock (1:1 ratio PI5P:DOPE) was delivered. This was followed by the addition of 5 uL of compound in 25% DMSO. Then, to each well, 5 uL of 25 nM (5×) typeIIB enzyme was delivered. The contents were mixed well and incubated for 1 h at 27 C. After 1 h, reaction was initiated by adding 5 uL of 500 uM GTP and the contents were mixed well with a multi-channel pipetteman. The final concentration of the reagents are as follows: 50 mM HEPES, pH 7.3, 10 mM MgCl2, 20 mM NaCl, 0.01% v/v triton-X100, 5% DMSO, 100 uM GTP, 80 uM (2 ug) PI5P, 2 ug DOPE, and 5 nM PIP4KIIB Typically, the highest conc. of compounds was 4.8 uM and the lowest conc. was 0.
After 2 h, the reaction was quenched by adding 25 uL of transcreener FI reagent. The contents were incubated at RT for 1 h and the Fluorescence (Ex: 584 Em: 623) was read using Molecular Devices Paradigm plate reader. […] The blanks were averaged and subtracted from all other wells. Using a calibration curve, RFU was converted to uM GDP (product). IC50 was calculated by plotting the residual activity (expressed as % No inhibitor control) vs. log [Inh. conc.]

The target in a further assay is T2, PIP4K 2A (Homo sapiens, UniProt P48426).
T2 sequence (P48426 1-406): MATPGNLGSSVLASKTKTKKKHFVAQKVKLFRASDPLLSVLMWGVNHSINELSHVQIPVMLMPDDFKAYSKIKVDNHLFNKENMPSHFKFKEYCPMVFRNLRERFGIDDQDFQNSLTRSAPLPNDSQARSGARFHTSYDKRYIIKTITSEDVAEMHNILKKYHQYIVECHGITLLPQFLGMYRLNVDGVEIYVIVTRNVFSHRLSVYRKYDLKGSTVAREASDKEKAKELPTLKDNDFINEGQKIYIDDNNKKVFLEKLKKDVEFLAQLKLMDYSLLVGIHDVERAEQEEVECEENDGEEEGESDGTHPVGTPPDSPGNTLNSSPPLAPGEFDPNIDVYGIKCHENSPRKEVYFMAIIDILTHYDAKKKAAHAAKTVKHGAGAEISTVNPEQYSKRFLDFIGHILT
Kind of assay: ADP-glo kinase assay PIP4K 2A. Also noted: 4 nM PIP4K2A (full length protein, SignalChem); purchased SignalChem. The note with it: compounds listed under IC50 bin headings. The format is biochemical. The protocol:
Dilution series of the compounds were prepared in DMSO at 100 times the final assay concentration (n1=n0/3 in 10 points). The compounds were further diluted to three times the assay concentration in assay buffer (20 mM MOPS pH 7.2, 25 mM magnesium chloride, 0.005% Tween 20). 6 μL of the diluted compounds were added to a 384 well assay plate followed by 9 μL of a mix consisting of 4 nM PIP4K2A (full length protein, SignalChem) and 100 μM PI(5)P diC8 (Tebu-Bio). Enzyme and compounds were pre-incubated at room temperature for 15 minutes.
Then 3 μL of a solution containing 60 μM ATP (Promega) in assay buffer was added to the wells containing compound and enzyme and mixing was performed by pipetting several times. The reaction was incubated at room temperature for 1 h. Then 18 μL of ADP-Glo™ Reagent (Promega) was added to stop the kinase reaction and deplete the unconsumed ATP, mixing was performed by pipetting several times. The plate was incubated at room temperature for 40 minutes before addition of 36 μL of Kinase Detection Reagent (Promega) to convert ADP to ATP and introduce luciferase and luciferin to detect ATP. The reaction was incubated at room temperature for 40 minutes before the luminescence was measured in a in a Victor 3V 1420 multilabel counter (Perkin Elmer).
Percent inhibition of the compounds as compared to dimethyl sulfoxide treated control samples was calculated. Compound concentration versus percent inhibition were fitted to generate IC50 values.
(ADP-Glo first removes unused ATP, then detects ADP through luciferase.)

For `CC1Oc2cc(N3CCCC3=O)ccc2-c2cnc(Nc3cncc(NC(=O)c4ccnc(N)c4)c3)cc21` (stereo not drawn) [Example 115, 2-amino-N-(5-((5-methyl-8-(2-oxopyrrolidin-1-yl)-5H-chromeno[4,3-c]pyridin-3-yl)amino)pyridin-3-yl)isonicotinamide], the figures for the concentration for half-maximal inhibition (IC50) at PIP4K2B and on PIP4K 2A were 1 to 10 nM and at most 1 nM, respectively.

With `CC1Oc2cc(N3CCCC3=O)ccc2-c2cnc(Nc3cncc(NC(=O)c4ccc5c(c4)COB5O)c3)cc21` (stereo not drawn) [Example 116, 1-hydroxy-N-(5-((5-methyl-8-(2-oxopyrrolidin-1-yl)-5H-chromeno[4,3-c]pyridin-3-yl)amino)pyridin-3-yl)-1,3-dihydrobenzo[c][1,2]oxaborole-5-carboxamide], the IC50 on PIP4K2B was 10 to 100 nM; against PIP4K 2A, at most 1 nM.

On to `CC1Oc2cc(N3CCCC3=O)ccc2-c2cnc(Nc3cncc(NC(=O)c4ccc5c(c4)B(O)OC5)c3)cc21` (stereo not drawn) [Example 117, 1-hydroxy-N-(5-((5-methyl-8-(2-oxopyrrolidin-1-yl)-5H-chromeno[4,3-c]pyridin-3-yl)amino)pyridin-3-yl)-1,3-dihydrobenzo[c][1,2]oxaborole-6-carboxamide], for which the values for the IC50 on PIP4K2B and on PIP4K 2A were 10 to 100 nM and 1 to 10 nM, respectively.

Regarding `CC1Oc2cc(N3CCCC3=O)ccc2-c2cnc(Nc3cncc(NC(=O)c4cccc5c4COB5O)c3)cc21` (stereo not drawn) [Example 118, 1-hydroxy-N-(5-((5-methyl-8-(2-oxopyrrolidin-1-yl)-5H-chromeno[4,3-c]pyridin-3-yl)amino)pyridin-3-yl)-1,3-dihydrobenzo[c][1,2]oxaborole-4-carboxamide], the IC50 lay within 10 to 100 nM on PIP4K2B and 1 to 10 nM against PIP4K 2A.

Regarding `CC1Oc2cc(N3CCCC3=O)ccc2-c2cnc(Nc3cncc(NC(=O)c4ccc(F)cc4)c3)cc21` (stereo not drawn) [Example 119, 4-fluoro-N-(5-((5-methyl-8-(2-oxopyrrolidin-1-yl)-5H-chromeno[4,3-c]pyridin-3-yl)amino)pyridin-3-yl)benzamide], the IC50 at PIP4K2B and at PIP4K 2A was 10 to 100 nM each time.

As for `CC1Oc2cc(N3CCCC3=O)ccc2-c2cnc(Nc3cncc(NC(=O)c4cccc(F)c4)c3)cc21` (stereo not drawn) [Example 120, 3-fluoro-N-(5-((5-methyl-8-(2-oxopyrrolidin-1-yl)-5H-chromeno[4,3-c]pyridin-3-yl)amino)pyridin-3-yl)benzamide], the IC50 on PIP4K2B was above 1000 nM; on PIP4K 2A, 1 to 10 nM.

`COc1cccc(C(=O)Nc2cncc(Nc3cc4c(cn3)-c3ccc(N5CCCC5=O)cc3OC4C)c2)c1` (stereo not drawn) [Example 121, 3-methoxy-N-(5-((5-methyl-8-(2-oxopyrrolidin-1-yl)-5H-chromeno[4,3-c]pyridin-3-yl)amino)pyridin-3-yl)benzamide]: the IC50 at PIP4K2B is 1 to 10 nM; on PIP4K 2A it was at most 1 nM.

As for `COc1ccc(C(=O)Nc2cncc(Nc3cc4c(cn3)-c3ccc(N5CCCC5=O)cc3OC4C)c2)cc1` (stereo not drawn) [Example 122, 4-methoxy-N-(5-((5-methyl-8-(2-oxopyrrolidin-1-yl)-5H-chromeno[4,3-c]pyridin-3-yl)amino)pyridin-3-yl)benzamide], the IC50 fell in the range of 10 to 100 nM on PIP4K2B and 1 to 10 nM on PIP4K 2A.

Consider `CC1Oc2cc(N3CCCC3=O)ccc2-c2cnc(Nc3cncc(NC(=O)c4cccc5[nH]ccc45)c3)cc21` (stereo not drawn) [Example 123, N-(5-((5-methyl-8-(2-oxopyrrolidin-1-yl)-5H-chromeno[4,3-c]pyridin-3-yl)amino)pyridin-3-yl)-1H-indole-4-carboxamide], for which the IC50 at PIP4K2B and against PIP4K 2A was 1 to 10 nM in each case.

In the case of `CC1Oc2cc(N3CCCC3=O)ccc2-c2cnc(Nc3cncc(NC(=O)c4ccnnc4)c3)cc21` (stereo not drawn) [Example 125, N-(5-((5-methyl-8-(2-oxopyrrolidin-1-yl)-5H-chromeno[4,3-c]pyridin-3-yl)amino)pyridin-3-yl)pyridazine-4-carboxamide], the IC50 on PIP4K2B lay within 10 to 100 nM; against PIP4K 2A, 1 to 10 nM.

In the case of `CC1Oc2cc(N3CCCC3=O)ccc2-c2cnc(Nc3cncc(NC(=O)c4cncc(N)n4)c3)cc21` (stereo not drawn) [Example 126, 6-amino-N-(5-((5-methyl-8-(2-oxopyrrolidin-1-yl)-5H-chromeno[4,3-c]pyridin-3-yl)amino)pyridin-3-yl)pyrazine-2-carboxamide], the IC50 at PIP4K2B fell in the range of 10 to 100 nM; on PIP4K 2A, 1 to 10 nM.

With `CC(=O)Nc1cc(Nc2cc3c(cn2)-c2ccc(N4CCCC4=O)cc2OC3C)cnn1` (stereo not drawn) [Example 129, N-(5-((5-methyl-8-(2-oxopyrrolidin-1-yl)-5H-chromeno[4,3-c]pyridin-3-yl)amino)pyridazin-3-yl)acetamide], the IC50 lay within 10 to 100 nM on PIP4K2B and 1 to 10 nM against PIP4K 2A.

As for `CC(CC(=O)Nc1cncc(Nc2cc3c(cn2)-c2ccc(N4CCCC4=O)cc2OC3C)c1)c1ccccc1` (stereo not drawn) [Example 132, N-(5-((5-methyl-8-(2-oxopyrrolidin-1-yl)-5H-chromeno[4,3-c]pyridin-3-yl)amino)pyridin-3-yl)-3-phenylbutanamide], the IC50 fell in the range of 10 to 100 nM on PIP4K2B and 1 to 10 nM on PIP4K 2A.

`CC(Cc1ccccc1)C(=O)Nc1cncc(Nc2cc3c(cn2)-c2ccc(N4CCCC4=O)cc2OC3C)c1` (stereo not drawn) [Example 133, 2-methyl-N-(5-((5-methyl-8-(2-oxopyrrolidin-1-yl)-5H-chromeno[4,3-c]pyridin-3-yl)amino)pyridin-3-yl)-3-phenylpropanamide]: the IC50 on PIP4K2B fell in the range of 10 to 100 nM; against PIP4K 2A, 1 to 10 nM.

Consider `CC1Oc2cc(N3CCCC3=O)ccc2-c2cnc(Nc3cncc(NC(=O)C(O)Cc4ccccc4)c3)cc21` (stereo not drawn) [Example 134, 2-hydroxy-N-(5-((5-methyl-8-(2-oxopyrrolidin-1-yl)-5H-chromeno[4,3-c]pyridin-3-yl)amino)pyridin-3-yl)-3-phenylpropanamide], for which the figures for the IC50 at PIP4K2B and at PIP4K 2A were 10 to 100 nM and 1 to 10 nM, respectively.

As usually defined, the IC50 is the concentration at which inhibition is half-maximal.
